Assay: solvent given as SMILES
Conditions: in CCOCC

| Structure (SMILES) | emission maximum [nm] |
| --- | --- |
| O=c1ccc2cc3c(cc2o1)OCC3 | 397 |
| Nc1ccc2c(c1)Cc1ccccc1-2 | 349 |
| CC(C)(C)c1ccc(-c2nc3c4ccc(-c5cc6ccccc6c6ccccc56)cc4c4cc(-c5cc6ccccc6c6ccccc56)ccc4c3n2-c2ccc(C(C)(C)C)cc2)cc1 | 384 |
| CN(C)c1ccc(C2=Cc3ccc4ccccc4[n+]3[B-](F)(F)O2)cc1 | 509 |
| CCCCCCCCCCCCCCCCCCN1C(=O)c2cccc3c(OCCN(C)C)ccc(c23)C1=O | 492 |

Same assay, conditions: in CN(C)C=O

| Structure (SMILES) | emission maximum [nm] |
| --- | --- |
| CC(C)(C)c1ccc(-c2nc3c4ccc(-c5cc6ccccc6c6ccccc56)cc4c4cc(-c5cc6ccccc6c6ccccc56)ccc4c3n2-c2ccc(C(C)(C)C)cc2)cc1 | 404 |
| CN(C)c1ccc(C2=Cc3ccc4ccccc4[n+]3[B-](F)(F)O2)cc1 | 581 |
| CCCCCCCCCCCCCCCCCCN1C(=O)c2cccc3c(OCCN(C)C)ccc(c23)C1=O | 516 |

Same assay, conditions: in CO

| Structure (SMILES) | emission maximum [nm] |
| --- | --- |
| CN1CCN(CCCN2c3ccccc3Sc3ccc(Cl)cc32)CC1 | 449 |
| O=c1ccc2cc3c(cc2o1)OCC3 | 405 |
| Nc1ccc2c(c1)Cc1ccccc1-2 | 367 |
| CN(C)c1ccc(C2=Cc3ccc4ccccc4[n+]3[B-](F)(F)O2)cc1 | 564 |
| CC1=N/C(=C\c2ccccc2N)C(=O)N1C | 454 |
| CC1=N/C(=C\c2ccccc2N(C)C)C(=O)N1C | 522 |
| CC(C)c1ccc2ccc3c(C(C)C)ccc4ccc1c2c43 | 380 |

Second part, the compound after the results:

| emission maximum [nm] | Structure (SMILES) |
| --- | --- |
| 483 | c1cc2ccc3cccc4c(-c5cc(-c6nccs6)nc(-c6nccs6)c5)cc(c1)c2c34 |
| 418 | COc1ccc(-c2ccc3c(c2)nnn3C[C@H](N)C(=O)O)cc1 |

Same assay, conditions: in COC(C)=O

| Structure (SMILES) | emission maximum [nm] |
| --- | --- |
| CN(C)c1ccc(C2=Cc3ccc4ccccc4[n+]3[B-](F)(F)O2)cc1 | 562 |

Same assay, conditions: in CS(C)=O

| emission maximum [nm] | Structure (SMILES) |
| --- | --- |
| 426.09 | CCOC(=O)c1ccc(NC(=O)COc2cc3c4c([nH]c3c(C)c2C)C(=O)CCC4)cc1 |
| 521 | C(=C\c1ccncn1)/c1ccc(N2CCCCC2)cc1 |
| 550 | C(=C\c1ccncn1)/c1ccc(N(c2ccccc2)c2ccccc2)cc1 |
| 350 | O=C1CC(=O)Nc2cc(Br)ccc2N1 |
| 530 | CC1=N/C(=C\c2ccccc2N)C(=O)N1C |
| 552 | CC1=N/C(=C\c2ccccc2N(C)C)C(=O)N1C |

| Structure (SMILES) | emission maximum [nm] |
| --- | --- |
| COC(=O)c1ccc(-c2ccc(-c3nnc(-c4ccc(-c5nnc(-c6ccc(-c7ccc(C(=O)OC)cc7)s6)o5)cc4)o3)s2)cc1 | 420 |

Same assay, conditions: in Cc1ccccc1

| Structure (SMILES) | emission maximum [nm] |
| --- | --- |
| CC(C)(C)c1ccc(-c2nc3c4ccc(-c5cc6ccccc6c6ccccc56)cc4c4cc(-c5cc6ccccc6c6ccccc56)ccc4c3n2-c2ccc(C(C)(C)C)cc2)cc1 | 385 |
| c1ccc(-c2nc(-c3ccccc3)nc(-c3ccc(-n4c5ccc(-n6c7ccccc7c7ccccc76)cc5c5ccc6c(c7ccccc7n6-c6ccccc6)c54)cc3)n2)cc1 | 463.87 |
| COCCC1=Cc2nc1ccc1[nH]c(cc1CCOC)c1nc(ccc3[nH]c2cc3CCO)C(CCOC)=C1 | 643 |
| O=C(c1ccncc1)c1ccc(-n2c3ccc(-n4c5ccccc5c5ccccc54)cc3c3cc(-n4c5ccccc5c5ccccc54)ccc32)cc1 | 481.09 |
| CCC1=C(C)C2=Cc3c4ccccc4c4n3[B-](c3ccncc3)(Oc3ccccc3-4)[N+]2=C1C=Cc1ccc(OC)cc1 (stereo unspecified) | 720 |
| N#Cc1c(N2c3ccccc3C(c3ccccc3)(c3ccccc3)c3ccccc32)cccc1N1c2ccccc2C(c2ccccc2)(c2ccccc2)c2ccccc21 | 454 |
| O=P(c1ccccc1)(c1ccccc1)n1c2ccccc2c2ccccc21 | 372 |
| CC(C)(C)c1ccc2c(c1)c1cc(C(C)(C)C)ccc1n2-c1ccc(-n2c3ccc(C(C)(C)C)cc3c3cc(C(C)(C)C)ccc32)c(-c2nccnc2C#N)c1 | 503 |
| COC(=O)c1ccc(-c2ccc(-c3nnc(-c4ccc(-c5nnc(-c6ccc(-c7ccc(C(=O)OC)cc7)s6)o5)cc4)o3)s2)cc1 | 399 |

Same assay, conditions: in ClC(Cl)Cl

| Structure (SMILES) | emission maximum [nm] |
| --- | --- |
| Cc1c2c(c(C)c3ccccc13)C1=C2C=CC2Nc3ccccc3NC12 (stereo unspecified) | 544 |
| N#Cc1c(C#N)c2cc(Cl)c(Cl)cc2c2cc(Cl)c(Cl)cc12 | 412 |
| CN(C)c1ccc(C2=Cc3ccc4ccccc4[n+]3[B-](F)(F)O2)cc1 | 521 |
| COC(=O)c1ccc(-c2ccc(-c3nnc(-c4ccc(-c5nnc(-c6ccc(-c7ccc(C(=O)OC)cc7)s6)o5)cc4)o3)s2)cc1 | 397 |

Now from value to compound:

| emission maximum [nm] | Structure (SMILES) |
| --- | --- |
| 368 | CCCCCCCCC1(CCCCCCCC)c2cc(-c3ccc([Si](C)(C)C)cc3)ccc2-c2ccc(-c3ccc([Si](C)(C)C)cc3)cc21 |
| 718 | CCCCCCCCC1(CCCCCCCC)c2cc3c(cc2-c2sc(-c4ccc(/C=C5\SC(SCC)=NC5=O)c5nsnc45)cc21)C(CCCCCCCC)(CCCCCCCC)c1cc(-c2ccc(/C=C4\SC(SCC)=NC4=O)c4nsnc24)sc1-3 |
| 439 | c1cc2ccc3cccc4c(-c5cc(-c6nccs6)nc(-c6nccs6)c5)cc(c1)c2c34 |

Same assay, conditions: in ClC=C(Cl)Cl

| Structure (SMILES) | emission maximum [nm] |
| --- | --- |
| CC(C)(C)c1ccc(-c2nc3c4ccc(-c5cc6ccccc6c6ccccc56)cc4c4cc(-c5cc6ccccc6c6ccccc56)ccc4c3n2-c2ccc(C(C)(C)C)cc2)cc1 | 388 |

Same assay, conditions: in ClCCl

| Structure (SMILES) | emission maximum [nm] |
| --- | --- |
| Cc1cc(C)c(B2c3cc(C)ccc3N3c4ccc(C)cc4B(c4c(C)cc(C)cc4C)c4cc(C)cc2c43)c(C)c1 | 484 |
| Nc1ccc2c(c1)Cc1ccccc1-2 | 353 |
| CC(C)(C)c1ccc(-c2nc3c4ccc(-c5cc6ccccc6c6ccccc56)cc4c4cc(-c5cc6ccccc6c6ccccc56)ccc4c3n2-c2ccc(C(C)(C)C)cc2)cc1 | 404 |
| CCn1c2ccccc2c2cccc(N(c3ccccc3)c3ccccc3)c21 | 423 |
| CCCCCCCCCCCCCCCCCCN1C(=O)c2cccc3c(OCCN(C)C)ccc(c23)C1=O | 502 |
| CCC1=C(C)C2=Cc3c4ccccc4c4n3[B-](c3ccncc3)(Oc3ccccc3-4)[N+]2=C1C=Cc1ccc(OC)cc1 (stereo unspecified) | 717 |
| Cc1c(C)c(-c2cccnc2)c(C)c(C)c1B(c1c(C)c(C)c(-c2cccnc2)c(C)c1C)c1c(C)c(C)c(-c2cccnc2)c(C)c1C | 403 |
| C(=C\c1ccncn1)/c1ccc(N2CCCCC2)cc1 | 498 |
| O=P(c1ccccc1)(c1ccccc1)n1c2ccccc2c2ccccc21 | 355 |
| CC1=N/C(=C\c2ccccc2N)C(=O)N1C | 452 |
| CC1=N/C(=C\c2ccccc2N(C)C)C(=O)N1C | 535 |
| CC(C)c1ccc2ccc3c(C(C)C)ccc4ccc1c2c43 | 381 |

Results, then the compound that gave them:

| emission maximum [nm] | Structure (SMILES) |
| --- | --- |
| 437 | CCCCn1c2ccc(-c3ccc4c(c3)c3c5c(ccc6ccccc65)ccc3n4CCCC)cc2c2c3c(ccc4ccccc43)ccc21 |
| 407 | CC(C)(C)NC(=O)c1cccc2ccc3c4cc(Cl)ccc4c4ccc(Cl)cc4c3c12 |
| 461 | CCN(CC)c1ccc2c(c1)oc(=O)c1c(C)nc3c(c(-c4ccccc4)nn3-c3ccccc3)c12 |
| 585 | CC1=C(c2ccccc2)C(C)=[N+]2C1=C(c1c(-c3ccccn3)nc3ccccn13)c1c(C)c(-c3ccccc3)c(C)n1[B-]2(F)F |
| 526 | C(=C\c1ccncn1)/c1ccc(N(c2ccccc2)c2ccccc2)cc1 |
| 420 | COc1cc2c(cc1OC)C1=C[C@H](c3ccc(Cl)cc3)C3(C(C#N)=C(C#N)N1CC2)c1cc(Br)ccc1-c1ccc(Br)cc13 |
| 557 | CCCCN(CCCC)c1ccc(C#Cc2cc(C#Cc3ccc([N+](=O)[O-])cc3)c(C#Cc3ccc(N(CCCC)CCCC)cc3)cc2C#Cc2ccc([N+](=O)[O-])cc2)cc1 |

Same assay, conditions: in O

| emission maximum [nm] | Structure (SMILES) |
| --- | --- |
| 457 | CN1CCN(CCCN2c3ccccc3Sc3ccc(Cl)cc32)CC1 |
| 468.86 | CCOC(=O)c1ccc(NC(=O)COc2cc3c4c([nH]c3c(C)c2C)C(=O)CCC4)cc1 |
| 452 | CC1=N/C(=C\c2ccccc2N)C(=O)N1C |
| 426 | CC1=N/C(=C\c2ccccc2N(C)C)C(=O)N1C |

| Structure (SMILES) | emission maximum [nm] |
| --- | --- |
| O=c1ccc2cc3c(cc2o1)OCC3 | 410 |
| Nc1ccc2c(c1)Cc1ccccc1-2 | 377 |

Same assay, conditions: in O=P(c1ccccc1)(c1ccccc1)c1ccccc1Oc1ccccc1P(=O)(c1ccccc1)c1ccccc1

| Structure (SMILES) | emission maximum [nm] |
| --- | --- |
| N#Cc1c(N2c3ccccc3C(c3ccccc3)(c3ccccc3)c3ccccc32)cccc1N1c2ccccc2C(c2ccccc2)(c2ccccc2)c2ccccc21 | 466 |

Same assay, conditions: in c1cc(-c2cccc(-n3c4ccccc4c4ccccc43)c2)cc(-n2c3ccccc3c3ccccc32)c1

| Structure (SMILES) | emission maximum [nm] |
| --- | --- |
| O=C(c1ccncc1)c1ccc(-n2c3ccc(-n4c5ccccc5c5ccccc54)cc3c3cc(-n4c5ccccc5c5ccccc54)ccc32)cc1 | 487.5 |

Same assay, conditions: in c1cc(-n2c3ccccc3c3ccccc32)cc(-n2c3ccccc3c3ccccc32)c1

| Structure (SMILES) | emission maximum [nm] |
| --- | --- |
| CC(C)(C)c1ccc2c(c1)c1cc(C(C)(C)C)ccc1n2-c1ccc(-n2c3ccc(C(C)(C)C)cc3c3cc(C(C)(C)C)ccc32)c(-c2nccnc2C#N)c1 | 493 |

Same assay, conditions: in c1ccccc1

| emission maximum [nm] | Structure (SMILES) |
| --- | --- |
| 411.45 | CCOC(=O)c1ccc(NC(=O)COc2cc3c4c([nH]c3c(C)c2C)C(=O)CCC4)cc1 |

Reference: the Deep4Chem optical property database
